From patent US7160888B2, “[1,8]naphthyridin-2-ones and related compounds for the treatment of schizophrenia” (Warner Lambert Company LLC, priority 2003, dated 2007)

What follows are compounds tested against D2 receptor (Homo sapiens, UniProt P14416) (assay: [3H]Thymidine uptake assay for D2 intrinsic activity). Conditions: Table 1; test compound 1 μM; 1 μM Quinpirole = 100% intrinsic activity.
Type: cell-based

Sequence of D2 receptor (P14416 whole entry): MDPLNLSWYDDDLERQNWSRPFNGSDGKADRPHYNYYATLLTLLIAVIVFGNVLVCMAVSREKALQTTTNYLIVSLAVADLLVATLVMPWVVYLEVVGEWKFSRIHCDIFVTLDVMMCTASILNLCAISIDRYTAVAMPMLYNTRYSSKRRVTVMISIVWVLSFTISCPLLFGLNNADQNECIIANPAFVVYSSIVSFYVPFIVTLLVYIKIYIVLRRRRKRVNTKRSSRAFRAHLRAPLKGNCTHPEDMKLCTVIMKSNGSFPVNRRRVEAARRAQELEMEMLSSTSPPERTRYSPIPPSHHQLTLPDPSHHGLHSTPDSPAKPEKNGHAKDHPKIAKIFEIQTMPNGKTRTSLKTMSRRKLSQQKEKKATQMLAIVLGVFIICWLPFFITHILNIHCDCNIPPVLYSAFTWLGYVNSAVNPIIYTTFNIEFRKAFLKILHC

In order of rising Emax at 1 µM:
1. CC(=O)c1c(F)cccc1N1CCN(CCCCOc2ccc3ccc(=O)[nH]c3n2)CC1 [Example B5, 7-{4-[4-(2-Acetyl-3-fluoro-phenyl)-piperazin-1-yl]-butoxy}-1H-[1,8]naphthyridin-2-one]  2%
2. O=C1CCc2ccc(OCCCCN3CCN(c4cccc5c4CCCCC5)CC3)nc2N1 [Example A63, 7-{4-[4-(6,7,8,9-Tetrahydro-5H-benzocyclohepten-1-yl)-piperazin-1-yl]-butoxy}-3,4-dihydro-1H-[1,8]naphthyridin-2-one]  4%
3. CC(=O)c1ccc(N2CCN(CCCCOc3ccc4c(n3)NC(=O)CC4)CC2)c2ccccc12 [Example A81, 7-{4-[4-(4-Acetyl-naphthalen-1-yl)-piperazin-1-yl]-butoxy}-3,4-dihydro-1H-[1,8]naphthyridin-2-one]  4%
4. CC(=O)c1c(Cl)cccc1N1CCN(CCCCOc2ccc3ccc(=O)[nH]c3n2)CC1 [Example B3, 7-{4-[4-(2-Acetyl-3-chloro-phenyl)-piperazin-1-yl]-butoxy}-1H-[1,8]naphthyridin-2-one]  8%
5. CC(=O)Nc1ccc2cccc(N3CCN(CCCCOc4ccc5c(n4)NC(=O)CC5)CC3)c2c1 [Example A84, N-(8-{4-[4-(7-Oxo-5,6,7,8-tetrahydro-[1,8]naphthyridin-2-yloxy)-butyl]-piperazin-1-yl}-naphthalen-2-yl)-acetamide]  11%
6. O=C1CCc2ccc(OCCCCN3CCN(c4cccc5cc(Cl)ccc45)CC3)nc2N1 [Example A76, 7-{4-[4-(6-Chloro-naphthalen-1-yl)-piperazin-1-yl]-butoxy}-3,4-dihydro-1H-[1,8]naphthyridin-2-one]  16%
7. Cc1c(F)ccc(N2CCN(CCCCOc3ccc4ccc(=O)[nH]c4n3)CC2)c1Cl [Example B8, 7-{4-[4-(2-Chloro-4-fluoro-3-methyl-phenyl)-piperazin-1-yl]-butoxy}-1H-[1,8]naphthyridin-2-one]  17%
8. O=C1CCc2ccc(OCCCCN3CCN(c4cccc5c4C(=O)CCC5)CC3)nc2N1 [Example A51, 7-{4-[4-(8-Oxo-5,6,7,8-tetrahydro-naphthalen-1-yl)-piperazin-1-yl]-butoxy}-3,4-dihydro-1H-[1,8]naphthyridin-2-one]  20%
9. O=c1ccc2ccc(OCCCCN3CCN(c4cccc(C(F)(F)F)c4Cl)CC3)nc2[nH]1 [Example B2, 7-{4-[4-(2-Chloro-3-trifluoromethyl-phenyl)-piperazin-1-yl]-butoxy}-1H-[1,8]naphthyridin-2-one]  22%
10. CCc1c(Cl)cccc1N1CCN(CCCCOc2ccc3ccc(=O)[nH]c3n2)CC1 [Example B4, 7-{4-[4-(3-Chloro-2-ethyl-phenyl)-piperazin-1-yl]-butoxy}-1H-[1,8]naphthyridin-2-one]  22%
11. COc1ccc2cccc(N3CCN(CCCCOc4ccc5c(n4)NC(=O)CC5)CC3)c2c1 [Example A73, 7-{4-[4-(7-Methoxy-naphthalen-1-yl)-piperazin-1-yl]-butoxy}-3,4-dihydro-1H-[1,8]naphthyridin-2-one]  23%
12. CC(C)Oc1ccc(Cl)cc1N1CCN(CCCCOc2ccc3ccc(=O)[nH]c3n2)CC1 [Example B9, 7-{4-[4-(5-Chloro-2-isopropoxy-phenyl)-piperazin-1-yl]-butoxy}-1H-[1,8]naphthyridin-2-one]  23%
13. CC(=O)c1ccc2cccc(N3CCN(CCCCOc4ccc5c(n4)NC(=O)CC5)CC3)c2c1 [Example A78, 7-{4-[4-(7-Acetyl-naphthalen-1-yl)-piperazin-1-yl]-butoxy}-3,4-dihydro-1H-[1,8]naphthyridin-2-one]  24%
14. CC(=O)c1ccc2c(N3CCN(CCCCOc4ccc5c(n4)NC(=O)CC5)CC3)cccc2c1 [Example A79, 7-{4-[4-(6-Acetyl-napthalen-1-yl)-piperazin-1-yl]-butoxy}-3,4-dihydro-1H-[1,8]naphthyridin-2-one]  24%
15. O=C1CCc2ccc(OCCCCN3CCN(c4cccc5c4CC(F)(F)C5)CC3)nc2N1 [Example A62, 7-{4-[4-(2,2-Difluoro-indan-4-yl)-piperazin-1-yl]-butoxy}-3,4-dihydro-1H-[1,8]naphthyridin-2-one]  27%
16. CC(=O)c1ccc2ccccc2c1N1CCN(CCCCOc2ccc3c(n2)NC(=O)CC3)CC1 [Example A82, 7-{4-[4-(2-Acetyl-naphthalen-1-yl)-piperazin-1-yl]-butoxy}-3,4-dihydro-1H-[1,8]naphthyridin-2-one]  27%
17. Cc1cc(N2CCN(CCCCOc3ccc4ccc(=O)[nH]c4n3)CC2)c(Cl)cc1F [Example B7, 7-{4-[4-(2-Chloro-4-fluoro-5-methyl-phenyl)-piperazin-1-yl]-butoxy}-1H-[1,8]naphthyridin-2-one]  28%
18. O=C1CCc2cccc(N3CCN(CCCCOc4ccc5c(n4)NC(=O)CC5)CC3)c2C1 [Example A56, 7-{4-[4-(7-Oxo-5,6,7,8-tetrahydro-naphthalen-1-yl)-piperazin-1-yl]-butoxy}-3,4-dihydro-1H-[1,8]naphthyridin-2-one]  29%
19. O=C1CCc2ccc(OCCCCN3CCN(c4cccc5c4CCCC5(F)F)CC3)nc2N1 [Example A59, 7-{4-[4-(5,5-Difluoro-5,6,7,8-tetrahydro-naphthalen-1-yl)-piperazin-1-yl]-butoxy}-3,4-dihydro-1H-[1,8]naphthyridin-2-one]  30%
20. CC(=O)c1cccc2c(N3CCN(CCCCOc4ccc5c(n4)NC(=O)CC5)CC3)cccc12 [Example A80, 7-{4-[4-(5-Acetyl-naphthalen-1-yl)-piperazin-1-yl]-butoxy}-3,4-dihydro-1H-[1,8]naphthyridin-2-one]  30%
21. CC1(C)CCc2cccc(N3CCN(CCCCOc4ccc5c(n4)NC(=O)CC5)CC3)c2C1=O [Example A52, 7-{4-[4-(7,7-Dimethyl-8-oxo-5,6,7,8-tetrahydro-naphthalen-1-yl)-piperazin-1-yl]-butoxy}-3,4-dihydro-1H-[1,8]naphthyridin-2-one]  32%
22. CC(C)Oc1ccccc1N1CCN(CCCCOc2ccc3ccc(=O)[nH]c3n2)CC1 [Example B10, 7-{4-[4-(2-Isopropoxy-phenyl)-piperazin-1-yl]-butoxy}-1H-[1,8]naphthyridin-2-one]  34%
23. O=C1CCc2ccc(OCCCCN3CCC(c4cccc5ccccc45)CC3)nc2N1 [Example A64, 7-[4-(4-Naphthalen-1-yl-piperidin-1-yl)-butoxy]-3,4-dihydro-1H-[1,8]naphthyridin-2-one]  36%
24. O=C1CCc2ccc(OCCCCN3CCN(c4cccc5c(Cl)cccc45)CC3)nc2N1 [Example A75, 7-{4-[4-(5-Chloro-naphthalen-1-yl)-piperazin-1-yl]-butoxy}-3,4-dihydro-1H-[1,8]naphthyridin-2-one]  36%
25. O=C1CCc2ccc(OCCCCN3CCN(c4cccc5cccc(Cl)c45)CC3)nc2N1 [Example A77, 7-{4-[4-(8-Chloro-naphthalen-1-yl)-piperazin-1-yl]-butoxy}-3,4-dihydro-1H-[1,8]naphthyridin-2-one]  36%
26. N#Cc1ccc2cccc(N3CCN(CCCCOc4ccc5c(n4)NC(=O)CC5)CC3)c2c1 [Example A83, 8-{4-[4-(7-Oxo-5,6,7,8-tetrahydro-[1,8]naphthyridin-2-yloxy)-butyl]-piperazin-1-yl}-naphthalene-2-carbonitrile]  36%
27. O=C1CCc2ccc(OCCCCN3CCN(c4cccc5ccc(Cl)cc45)CC3)nc2N1 [Example A74, 7-{4-[4-(7-Chloro-naphthalen-1-yl)-piperazin-1-yl]-butoxy}-3,4-dihydro-1H-[1,8]naphthyridin-2-one]  37%
28. O=C1CCc2ccc(OCCCCN3CCN(c4cccc5cccc(F)c45)CC3)nc2N1 [Example A66, 7-{4-[4-(8-Fluoro-naphthalen-1-yl)-piperazin-1-yl]-butoxy}-3,4-dihydro-1H-[1,8]naphthyridin-2-one]  49%

Same assay, conditions: Table 2; test compound 1 μM; 1 μM Quinpirole = 100% intrinsic activity

In order of rising Emax at 1 µM:
1. O=c1ccc2ccc(OCCCCN3CCN(c4cccc5c4OCC5)CC3)nc2[nH]1 [Example B8′, 7-{4-[4-(2,3-Dihydro-benzofuran-7-yl)-piperazin-1-yl]-butoxy}-1H-[1,8]naphthyridin-2-one]  21%
2. O=c1ccc2ccc(OCCCCN3CCN(c4cccc5c4OCCC5)CC3)nc2[nH]1 [Example B1′, 7-[4-(4-Chroman-8-yl-piperazin-1-yl)-butoxy]-1H-[1,8]naphthyridin-2-one]  22%
3. CC1C=Cc2cccc(N3CCN(CCCCOc4ccc5ccc(=O)[nH]c5n4)CC3)c2O1 (stereo not drawn) [Example B4′, 7-{4-[4-(2-Methyl-2H-chromen-8-yl)-piperazin-1-yl]-butoxy}-1H-[1,8]naphthyridin-2-one]  28%
4. CC1(C)C=Cc2cccc(N3CCN(CCCCOc4ccc5ccc(=O)[nH]c5n4)CC3)c2O1 [Example B2′, 7-{4-[4-(2,2-Dimethyl-2H-chromen-8-yl)-piperazin-1-yl]-butoxy}-1H-[1,8]naphthyridin-2-one]  33%
5. O=c1ccc2ccc(OCCCCN3CCN(c4cccc5c4OC4(C=C5)CCCC4)CC3)nc2[nH]1 [Example B6′, 7-{4-[4-(Spiro[chromene-2,1′-cyclopentan]-8-yl)-piperazin-1-yl]-butoxy}-1H-[1,8]naphthyridin-2-one]  33%
6. CC1(C)Cc2cccc(N3CCN(CCCCOc4ccc5ccc(=O)[nH]c5n4)CC3)c2O1 [Example B9′, 7-{4-[4-(2,2-Dimethyl-2,3-dihydro-benzofuran-7-yl)-piperazin-1-yl]-butoxy}-1H-[1,8]naphthyridin-2-one]  40%
7. O=c1ccc2ccc(OCCCCN3CCN(c4cccc5c4OC4(CCCC4)CC5)CC3)nc2[nH]1 [Example B7′, 7-{4-[4-(3,4-Dihydrospiro[chromene-2,1′-cyclopentan]-8-yl)-piperazin-1-yl]-butoxy}-1H-[1,8]naphthyridin-2-one]  48%
8. CC1(C)CCc2cccc(N3CCN(CCCCOc4ccc5ccc(=O)[nH]c5n4)CC3)c2O1 [Example B3′, 7-{4-[4-(2,2-Dimethyl-chroman-8-yl)-piperazin-1-yl]-butoxy}-1H-[1,8]naphthyridin-2-one]  50%
